From paper PMC8795677 (Frontiers in Chemistry, 2022)
Entries after “also recorded” stand apart in the source; their conditions may differ.

Tests used:
[1] = target: T1, mGlu1(N264H) mutant (Rattus norvegicus, UniProt P23385, N264H); parameters: method as in Ojima et al., 2021; settings: previously reported; ref Ojima et al., 2021; cited from earlier work
T1 construct: expressed in transfected cells; host or cells: HEK293

[2] = target: T2, mGlu1 V405C/D322H/D324H (CHH) mutant (Rattus norvegicus, UniProt P23385, D322H/D324H/V405C); assay: Fluorescent Ca2+ imaging in transfected HEK293 cells, CHH mutant; format: cell-based; settings: secondary screening, 3 μM metal ion or complex
T2 construct: expressed in transfected cells; host or cells: HEK293
T2 sequence (P23385 19-1199 D322H/D324H/V405C): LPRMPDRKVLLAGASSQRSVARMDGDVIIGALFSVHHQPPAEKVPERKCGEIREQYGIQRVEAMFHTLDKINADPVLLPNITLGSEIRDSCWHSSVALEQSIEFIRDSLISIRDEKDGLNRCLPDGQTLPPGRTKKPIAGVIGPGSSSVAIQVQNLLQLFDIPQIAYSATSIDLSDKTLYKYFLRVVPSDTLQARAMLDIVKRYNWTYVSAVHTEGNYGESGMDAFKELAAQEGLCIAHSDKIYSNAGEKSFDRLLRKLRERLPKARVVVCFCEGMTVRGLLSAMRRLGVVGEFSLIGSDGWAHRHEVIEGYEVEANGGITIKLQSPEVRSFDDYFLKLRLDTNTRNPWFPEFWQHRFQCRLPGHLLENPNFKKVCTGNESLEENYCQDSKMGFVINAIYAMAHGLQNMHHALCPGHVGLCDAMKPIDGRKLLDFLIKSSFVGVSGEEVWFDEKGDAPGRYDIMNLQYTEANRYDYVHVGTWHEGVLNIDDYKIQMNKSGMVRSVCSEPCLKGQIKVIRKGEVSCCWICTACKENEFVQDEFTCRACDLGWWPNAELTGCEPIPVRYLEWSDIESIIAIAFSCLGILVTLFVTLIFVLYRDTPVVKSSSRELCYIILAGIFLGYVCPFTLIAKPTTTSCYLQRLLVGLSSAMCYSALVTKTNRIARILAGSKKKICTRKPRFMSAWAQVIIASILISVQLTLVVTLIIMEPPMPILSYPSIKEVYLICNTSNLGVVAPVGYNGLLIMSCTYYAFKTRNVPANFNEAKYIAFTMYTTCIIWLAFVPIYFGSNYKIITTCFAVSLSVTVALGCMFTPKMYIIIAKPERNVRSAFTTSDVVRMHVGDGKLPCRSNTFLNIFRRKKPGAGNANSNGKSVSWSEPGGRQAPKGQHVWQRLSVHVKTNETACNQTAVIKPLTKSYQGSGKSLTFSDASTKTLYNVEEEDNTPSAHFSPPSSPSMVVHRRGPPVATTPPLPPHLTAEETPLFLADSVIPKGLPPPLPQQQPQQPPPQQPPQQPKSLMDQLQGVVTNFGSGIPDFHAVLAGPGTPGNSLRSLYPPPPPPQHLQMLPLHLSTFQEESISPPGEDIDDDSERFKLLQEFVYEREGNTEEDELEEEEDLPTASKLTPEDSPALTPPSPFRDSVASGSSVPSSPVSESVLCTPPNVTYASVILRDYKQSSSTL

[3] = target: T3, mGlu1 V405H/D322C/D324H (HCH) mutant (Rattus norvegicus, UniProt P23385, D322C/D324H/V405H); assay: Fluorescent Ca2+ imaging in transfected HEK293 cells, HCH mutant; format: cell-based; settings: for activation of HCH mutant (Δratio): secondary screening, 3 μM metal ion or complex
T3 construct: expressed in transfected cells; host or cells: HEK293
T3 sequence (P23385 19-1199 D322C/D324H/V405H): as the sequence (P23385 19-1199 D322H/D324H/V405C) above, with H304C, C387H counted along it

[4] = target: T4, WT mGlu1 (Rattus norvegicus, UniProt P23385); assay: Fluorescent Ca2+ imaging (Fura-2) in transfected HEK293 cells, WT mGlu1; format: cell-based; settings: at the concentration of the mutant's EC50 (1.5 µM Cu^2+; 0.44 µM Zn^2+)
T4 construct: expressed in transfected cells; host or cells: HEK293
T4 sequence (P23385 19-1199): as the sequence (P23385 19-1199 D322H/D324H/V405C) above, with H304D, H306D, C387V counted along it

[5] = target: T1, mGlu1(N264H) mutant; assay: Fluorescent Ca2+ imaging in transfected HEK293 cells, N264H mutant; format: cell-based; settings: for activation of N264H mutant (Δratio): heat map: 3 μM metal ion or complex
[6] = target: T5, mGlu1 V405H/D324H mutant (Rattus norvegicus, UniProt P23385, D324H/V405H); assay: Fluorescent Ca2+ imaging in transfected HEK293 cells, V405H/D324H mutant; format: cell-based; settings: compared with HCH mutant
T5 construct: expressed in transfected cells; host or cells: HEK293
T5 sequence (P23385 19-1199 D324H/V405H): as the sequence (P23385 19-1199 D322H/D324H/V405C) above, with H304D, C387H counted along it

[7] = target: T6, mGlu1 E325C mutant (Rattus norvegicus, UniProt P23385, E325C); assay: Fluorescent Ca2+ imaging in transfected HEK293 cells, E325C mutant; format: cell-based; settings: for activation / metal selectivity of E325C mutant (Δratio): heat map: 3 μM metal ion or complex
T6 construct: expressed in transfected cells; host or cells: HEK293
T6 sequence (P23385 19-1199 E325C): as the sequence (P23385 19-1199 D322H/D324H/V405C) above, with H304D, H306D, E307C, C387V counted along it

[8] = target: T7, mGlu1 D322C/D324H mutant (Rattus norvegicus, UniProt P23385, D322C/D324H); assay: Fluorescent Ca2+ imaging in transfected HEK293 cells, D322C/D324H mutant; format: cell-based; settings: compared with HCH mutant
T7 construct: expressed in transfected cells; host or cells: HEK293
T7 sequence (P23385 19-1199 D322C/D324H): as the sequence (P23385 19-1199 D322H/D324H/V405C) above, with H304C, C387V counted along it

[9] = target: T8, mGlu1 V405H/D322C mutant (Rattus norvegicus, UniProt P23385, D322C/V405H); assay: Fluorescent Ca2+ imaging in transfected HEK293 cells, V405H/D322C mutant; format: cell-based; settings: compared with HCH mutant
T8 construct: expressed in transfected cells; host or cells: HEK293
T8 sequence (P23385 19-1199 D322C/V405H): as the sequence (P23385 19-1199 D322H/D324H/V405C) above, with H304C, H306D, C387H counted along it

[10] = target: T9, mGlu1 Q73H/D324H mutant (Rattus norvegicus, UniProt P23385, D324H/Q73H); assay: Fluorescent Ca2+ imaging in transfected HEK293 cells, Q73H/D324H mutant; format: cell-based; settings: 1 μM CuCl2
T9 construct: expressed in transfected cells; host or cells: HEK293
T9 sequence (P23385 19-1199 Q73H/D324H): as the sequence (P23385 19-1199 D322H/D324H/V405C) above, with Q55H, H304D, C387V counted along it

[11] = target: T10, mGlu1 Q73H/D324H/E325C mutant (Rattus norvegicus, UniProt P23385, D324H/E325C/Q73H); assay: Fluorescent Ca2+ imaging in transfected HEK293 cells, Q73H/D324H/E325C mutant; format: cell-based; settings: for activation of Q73H/D324H/E325C mutant (Δratio): primary screening, 3 μM metal ion or complex
T10 construct: expressed in transfected cells; host or cells: HEK293
T10 sequence (P23385 19-1199 Q73H/D324H/E325C): as the sequence (P23385 19-1199 D322H/D324H/V405C) above, with Q55H, H304D, E307C, C387V counted along it

[12] = target: T11, mGlu1 Q73H/E325C mutant (Rattus norvegicus, UniProt P23385, E325C/Q73H); assay: Fluorescent Ca2+ imaging in transfected HEK293 cells, Q73H/E325C mutant; format: cell-based; settings: 1 μM CuCl2
T11 construct: expressed in transfected cells; host or cells: HEK293
T11 sequence (P23385 19-1199 Q73H/E325C): as the sequence (P23385 19-1199 D322H/D324H/V405C) above, with Q55H, H304D, H306D, E307C, C387V counted along it

[13] = target: T12, mGlu1 D324H/E325C mutant (Rattus norvegicus, UniProt P23385, D324H/E325C); assay: Fluorescent Ca2+ imaging in transfected HEK293 cells, D324H/E325C mutant; format: cell-based; settings: 1 μM CuCl2
T12 construct: expressed in transfected cells; host or cells: HEK293
T12 sequence (P23385 19-1199 D324H/E325C): as the sequence (P23385 19-1199 D322H/D324H/V405C) above, with H304D, E307C, C387V counted along it

[14] = target: T13, mGlu1 H55F/E325C mutant (Rattus norvegicus, UniProt P23385, E325C/H55F); assay: Fluorescent Ca2+ imaging in transfected HEK293 cells, H55F/E325C mutant; format: cell-based; settings: 1 μM CuCl2, compared with E325C
T13 construct: expressed in transfected cells; host or cells: HEK293
T13 sequence (P23385 19-1199 H55F/E325C): as the sequence (P23385 19-1199 D322H/D324H/V405C) above, with H37F, H304D, H306D, E307C, C387V counted along it

[15] = target: T14, mGlu1 E72A/E325C mutant (Rattus norvegicus, UniProt P23385, E325C/E72A); assay: Fluorescent Ca2+ imaging in transfected HEK293 cells, E72A/E325C mutant; format: cell-based; settings: 1 μM CuCl2, compared with E325C
T14 construct: expressed in transfected cells; host or cells: HEK293
T14 sequence (P23385 19-1199 E72A/E325C): as the sequence (P23385 19-1199 D322H/D324H/V405C) above, with E54A, H304D, H306D, E307C, C387V counted along it

[16] = target: T15, mGlu1 Q73A/E325C mutant (Rattus norvegicus, UniProt P23385, E325C/Q73A); assay: Fluorescent Ca2+ imaging in transfected HEK293 cells, Q73A/E325C mutant; format: cell-based; settings: 1 μM CuCl2, compared with E325C
T15 construct: expressed in transfected cells; host or cells: HEK293
T15 sequence (P23385 19-1199 Q73A/E325C): as the sequence (P23385 19-1199 D322H/D324H/V405C) above, with Q55A, H304D, H306D, E307C, C387V counted along it

[17] = target: T16, mGlu1 V405H/D322H/D324C (HHC) mutant (Rattus norvegicus, UniProt P23385, D322H/D324C/V405H); assay: Fluorescent Ca2+ imaging in transfected HEK293 cells, HHC mutant; format: cell-based; settings: primary screening, 3 μM metal ion or complex
T16 construct: expressed in transfected cells; host or cells: HEK293
T16 sequence (P23385 19-1199 D322H/D324C/V405H): as the sequence (P23385 19-1199 D322H/D324H/V405C) above, with H306C, C387H counted along it

[18] = target: T17, mGlu1 H55/P58H/N264C mutant (Rattus norvegicus, UniProt P23385, N264C/P58H); assay: Fluorescent Ca2+ imaging in transfected HEK293 cells, H55/P58H/N264C mutant; format: cell-based; settings: primary screening, 3 μM metal ion or complex
T17 construct: expressed in transfected cells; host or cells: HEK293
T17 sequence (P23385 19-1199 P58H/N264C): as the sequence (P23385 19-1199 D322H/D324H/V405C) above, with P40H, N246C, H304D, H306D, C387V counted along it

T1 sequence (P23385 19-1199 N264H): as the sequence (P23385 19-1199 D322H/D324H/V405C) above, with N246H, H304D, H306D, C387V counted along it

Row | Compound | activation of mGlu1(N264H) mutant [1] | activation of CHH mutant (Δratio) [2] | activation of HCH mutant (Δratio) [3] | activation of WT mGlu1 in dose dependency [4] | activation of N264H mutant (Δratio) [5] | activation / metal selectivity of E325C mutant (Δratio) [7] | activation of Q73H/D324H/E325C mutant (Δratio) [11] | activation of V405H/D322H/D324C (HHC) mutant (Δratio) [17] | further results
1 | [Pd+2] [Pd^2+] | failed to activate | strongly activated | – | – | – | – | – | – | –
2 | [Zn+2] [Zn^2+, ZnCl2] | failed to activate | strongly activated | activated strongly | not activated at all | not activated | not activated | – | – | EC50 ([3]; HEK293 cells, HCH mutant, dose dependency, read-out: EC50 of activation (Δratio, [Ca2+]i)): 440 nM; activation of HCH mutant by Zn^2+ in the co-presence of Cu^2+ ([3]; [ZnCl2] = 3 μM, [CuCl2] = 1 μM): impaired; cell-specific activation of HCH-expressing cells in mixed culture ([3]; three HEK293 cell types on one coverslip, sequential perfusion 60 s, 3 μM ZnCl2): selectively activated; Zn^2+-induced response (Δratio) of V405H/D324H mutant [6]: significantly impaired; Zn^2+-induced response (Δratio) of D322C/D324H mutant [8]: significantly impaired; Zn^2+-induced response (Δratio) of V405H/D322C mutant [9]: significantly impaired
3 | [Cu+2] [Cu^2+, CuCl2] | failed to activate | strongly activated | not activated at all; also recorded: insensitive | not activated | not activated | high selectivity | strongly activated | – | Cu^2+-induced response (Δratio) of Q73H/D324H mutant [10]: loss in sensitivity; EC50 ([11]; HEK293 cells, Q73H/D324H/E325C mutant, dose dependency, read-out: EC50 of activation (Δratio, [Ca2+]i)): 1500 nM; Cu^2+-induced response (Δratio) of Q73H/E325C mutant [12]: prominent Cu^2+-induced responses; Cu^2+-induced response (Δratio) of D324H/E325C mutant [13]: prominent Cu^2+-induced responses; Cu^2+-induced response (Δratio) of H55F/E325C mutant [14]: drastically decreased; Cu^2+-induced response (Δratio) of E72A/E325C mutant [15]: drastically decreased; Cu^2+-induced response (Δratio) of E325C single mutant ([7]; 1 μM CuCl2): maintained; EC50 ([7]; HEK293 cells, E325C mutant, dose dependency, read-out: EC50 of activation (Δratio, [Ca2+]i)): 220 nM; activation of E325C mutant by Cu^2+ in the co-presence of Pd (bpy) ([7]; [CuCl2] = 1 μM, [Pd(bpy)] = 3 μM): impaired; cell-specific activation of E325C-expressing cells in mixed culture ([7]; three HEK293 cell types on one coverslip, sequential perfusion 60 s, 1 μM CuCl2): selectively activated; sensitivity to Cu^2+ (Δratio) of Q73A/E325C mutant [16]: slightly affected
4 | Pd-2,2′-bipyridine [Pd (bpy)] | selective activation | – | not activated at all; also recorded: insensitive | – | selectively activated | not activated | not activated | activated | activation of N264H mutant by Pd(bpy) in the co-presence of Cu2+ or Zn2+ ([5]; [Pd(bpy)] = 3 μM, [CuCl2] = 1 μM, [ZnCl2] = 3 μM): did not affect; cell-specific activation of N264H-expressing cells in mixed culture ([5]; three HEK293 cell types on one coverslip, sequential perfusion 60 s, 3 μM Pd (bpy)): selectively activated; activation of H55/P58H/N264C mutant (Δratio) [18]: activated
5 | [Ni+2] [Ni^2+] | failed to activate | strongly activated | moderately | – | – | – | moderate sensitivity | showed sensitivity; also recorded: activated | –
6 | [Cd+2] [Cd^2+] | failed to activate | – | moderately | – | – | – | – | – | –
